# Reference: US5332742A, “Renin inhibitors” (Abbott Laboratories, priority 1993, dated 1994)
# Legend:
# [1] = target: T1, human renal renin (Homo sapiens, UniProt P00797); test: In vitro inhibition of human renal renin (angiotensin I formation measured by radioimmunoassay); type: biochemical; conditions: human renal renin with human angiotensinogen, 37 degrees C., pH 6.5
# T1 construct: human renal renin, free from acid proteolytic activity; from tissue; host or cells: human kidney ('renal')
# T1 sequence (P00797 67-406): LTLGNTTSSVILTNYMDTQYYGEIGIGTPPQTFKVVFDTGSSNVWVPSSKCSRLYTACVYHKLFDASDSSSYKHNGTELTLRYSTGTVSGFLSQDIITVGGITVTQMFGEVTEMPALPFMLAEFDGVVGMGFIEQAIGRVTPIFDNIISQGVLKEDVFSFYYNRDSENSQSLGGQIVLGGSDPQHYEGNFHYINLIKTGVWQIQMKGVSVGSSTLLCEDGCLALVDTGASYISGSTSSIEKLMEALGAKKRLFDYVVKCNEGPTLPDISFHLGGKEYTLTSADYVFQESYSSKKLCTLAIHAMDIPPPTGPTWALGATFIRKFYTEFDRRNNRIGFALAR
# Procedure: At the end of the incubation, the amount of angiotensin I formed is measured by radioimmunoassay and the molar concentration required to cause 50% inhibition, expressed as the IC50 is calculated .
# [2] = target: T2, renin (Canis lupus familiaris, UniProt Q6DYE7); test: Plasma renin activity (PRA) in salt-depleted dogs after i.v. or p.o. dosing; type: in vivo, dog; conditions: salt-depleted male beagle dogs; 10 mg/kg i.v. (in D5W) or 10 mg/kg p.o. (in methylcellulose); FIG. 1B
# T2 construct: from tissue; host or cells: circulating plasma renin of salt-depleted beagle dogs (in vivo)
# T2 sequence (Q6DYE7 66-403): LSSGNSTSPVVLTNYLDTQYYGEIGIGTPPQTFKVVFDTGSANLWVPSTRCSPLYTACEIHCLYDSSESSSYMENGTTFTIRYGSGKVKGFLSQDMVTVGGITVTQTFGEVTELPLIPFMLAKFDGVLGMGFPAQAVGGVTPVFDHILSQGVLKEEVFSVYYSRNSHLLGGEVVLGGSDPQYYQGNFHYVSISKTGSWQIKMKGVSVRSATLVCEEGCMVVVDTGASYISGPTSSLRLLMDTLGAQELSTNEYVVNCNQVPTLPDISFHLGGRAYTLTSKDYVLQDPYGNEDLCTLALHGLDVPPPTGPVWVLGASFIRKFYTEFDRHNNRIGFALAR
# Procedure: (§1) Male beagle dogs (8-12 kg, Marshall/Hazelton) were converted to a salt-depleted status by dosing on the three consecutive days prior to the experiment with furosemide (Phoenix Pharmaceuticals, 10 mg/kg i.m.) and by placing them on a low sodium diet (approximately 2-5 meq/day; H/D; Hills Pet Products). Prior to the study, each dog was instrumented with an indwelling catheter ana conditioned to stand calmly in a restraining sling for periods of up to 8 hours. On the morning of the experiment, the arteriai catheter was connected to a Sorenson Transpac II® pressure transducer (Abbott Laboratories). For dogs receiving intravenous (i.v.) doses, a catheter (Abbott; 16 ga Venocath) was introduced in a rear leg saphenous vein by venipuncture. For dogs receiving receiving oral (p.o.) doses by garage, an 18 Fr. suction catheter (Mallinckrodt Critical Care) was used. Data samples of systemic hemodynamic variables were acquired by the MI2 computer at 5 minute intervals beginning 90 minutes prior to administration of the test compound and ending 6 hours after dosing. Arterial blood smaples (3.0 ml) to determine plasma drug concentrations and plasma renin activity (PRA) were taken for i.v. doses at -60, -30, 3, 10, 30, 60, 120, 240 and 360 minutes an for p.o. doses at --60, -30, 15, 30, 60, 90, 120, 180 and 360 minutes relative to the time of test compound administration. […]
# [3] = Mean arterial blood pressure in salt-depleted dogs after i.v. or p.o. dosing; type: in vivo, dog; conditions: salt-depleted male beagle dogs; 10 mg/kg i.v. (in D5W) or 10 mg/kg p.o. (in methylcellulose); FIG. 1A
# Procedure: as §1
SMILES,IC50 [1] [nM],plasma renin activity (PRA) [2],mean arterial pressure (MAP) [3]
"CC(C)C[C@H](O)[C@H](O)[C@H](CC1CCCCC1)NC(=O)[C@H](Cc1cscn1)NC(=O)[C@H](Cc1ccccc1)CS(=O)(=O)N1CCNCC1 [Example 6D, (2S)-2-Benzyl-3-(piperazin-4-ylsulfonyl)propionyl-(L)-(4-Thiazolyl)Ala Amide of (2 S, 3R, 4S)-2-Amin0-1-cyclohexyl-3,4-dihydroxy-6-methylheptane]",0.33,,
"CC(C)C[C@H](O)[C@H](O)[C@H](CC1CCCCC1)NC(=O)[C@H](Cc1cscn1)NC(=O)[C@H](Cc1ccccc1)CS(=O)(=O)N1CC[N+](C)([O-])CC1 [Example 10B, (2S)-2-Benzyl-3-(1-methyl-1-oxo-piperazin-4-ylsulfonyl)propionyl-(L)-(4Thiazolyl)Ala Amide of (2S,3R,4S)-2-Amino-1-cyclohexyl-3,4-dihydroxy-6-methylheptane]",0.3,,
CC(C)C[C@H](O)[C@H](O)[C@H](CC1CCCCC1)NC(=O)[C@H](Cc1cscn1)NC(=O)[C@H](Cc1ccccc1)CS(=O)(=O)N1CCNC(=O)C1 [Example 11F],0.28,,
"CC(C)C[C@H](O)[C@H](O)[C@H](CC1CCCCC1)NC(=O)[C@H](Cc1cscn1)N(C)C(=O)C(CCc1ccccc1)NS(=O)(=O)N1CCN(C)CC1 (stereo partly drawn) [Example 12F, (4-Methylpiperazin-1-yl) sulfonyl-(Phenylmethyl)alanine-N-Methyl-3-(4-thiazolyl)-L-alanine Amide of (2S,3R,4S)-2-Amino-1-cyclohexyl-3,4-dihydroxy-6-methylheptane]",0.45,,
CC(C)C[C@H](O)[C@H](O)[C@H](CC1CCCCC1)NC(=O)[C@H](Cc1cscn1)NC(=O)C(Cc1ccccc1)NS(=O)(=O)N1CCN(C)CC1 (stereo partly shown) [Example 13C],0.22,,
"CC(C)C[C@H](O)[C@H](O)[C@H](CC1CCCCC1)NC(=O)[C@H](Cc1cscn1)NC(=O)[C@H](Cc1ccccc1)CS(=O)(=O)N1CCN(C)CC1.CS(=O)(=O)O [Example 17B, (2S)-2-Benzyl-3-(1-methyl-piperazin-4-ylsulfonyl) propionyl-(L)-(4-Thiazolyl)Ala Amide of (2S,3R,4S)-2-Amino-1-cyclohexyl-3,4-dihydroxy-6-methylheptane methanesulfonate salt]",,inhibits renin in vivo,effective for reducing blood pressure
